# From ChEMBL document CHEMBL4002550, “Fragment-based discovery of novel pentacyclic triterpenoid derivatives as cholesteryl ester transfer protein inhibitors” (Eur J Med Chem, 2017)
# Biological target: T1, Cholesteryl ester transfer protein (Homo sapiens, UniProt P11597)
# T1 sequence (P11597 whole entry): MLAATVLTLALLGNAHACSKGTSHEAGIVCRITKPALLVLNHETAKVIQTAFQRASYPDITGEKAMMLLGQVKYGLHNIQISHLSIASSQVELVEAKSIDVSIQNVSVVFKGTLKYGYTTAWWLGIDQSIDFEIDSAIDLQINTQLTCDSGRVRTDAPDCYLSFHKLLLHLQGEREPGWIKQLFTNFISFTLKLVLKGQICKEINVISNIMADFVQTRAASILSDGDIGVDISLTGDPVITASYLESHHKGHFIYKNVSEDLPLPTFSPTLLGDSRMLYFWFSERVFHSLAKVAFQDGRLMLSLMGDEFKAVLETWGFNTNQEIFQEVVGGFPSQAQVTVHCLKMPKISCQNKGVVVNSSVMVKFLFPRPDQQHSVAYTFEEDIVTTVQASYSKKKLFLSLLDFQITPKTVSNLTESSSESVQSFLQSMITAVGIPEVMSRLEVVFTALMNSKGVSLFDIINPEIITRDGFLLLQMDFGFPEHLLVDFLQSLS
# Assay: Inhibition of recombinant full length human CETP expressed in CHO cells assessed as reduction in BODIPY-CE transfer measured after 1 to 3 hrs by fluorescence assay
# Assay type: cell-based
row,SMILES,IC50 [µM]
1,CCOC(=O)N1c2ccc(C(F)(F)F)cc2[C@@H](NC(=O)CC(=O)O[C@H]2CC[C@]3(C)[C@H]4CC=C5[C@@H]6CC(C)(C)CC[C@]6(C(=O)O)CC[C@@]5(C)[C@]4(C)CC[C@H]3C2(C)C)C[C@H]1CC,> 50
2,CCOC(=O)N1c2ccc(C(F)(F)F)cc2[C@@H](NC(=O)CCC(=O)O[C@H]2CC[C@]3(C)[C@H]4CC=C5[C@@H]6[C@@H](C)[C@H](C)CC[C@]6(C(=O)O)CC[C@@]5(C)[C@]4(C)CC[C@H]3C2(C)C)C[C@H]1CC,0.28
3,CCOC(=O)N1c2ccc(C(F)(F)F)cc2[C@@H](NC(=O)CC(=O)O[C@H]2CC[C@]3(C)[C@H]4CC=C5[C@@H]6[C@@H](C)[C@H](C)CC[C@]6(C(=O)O)CC[C@@]5(C)[C@]4(C)CC[C@H]3C2(C)C)C[C@H]1CC,4.42
4,CCOC(=O)N1c2ccc(C(F)(F)F)cc2[C@@H](NC(=O)CCCC(=O)O[C@H]2CC[C@]3(C)[C@H]4CC=C5[C@@H]6CC(C)(C)CC[C@]6(C(=O)O)CC[C@@]5(C)[C@]4(C)CC[C@H]3C2(C)C)C[C@H]1CC,> 50
5,CCOC(=O)N1c2ccc(C(F)(F)F)cc2[C@@H](NC(=O)CCC(=O)O[C@H]2CC[C@]3(C)[C@H]4CC=C5[C@@H]6CC(C)(C)CC[C@]6(C(=O)O)CC[C@@]5(C)[C@]4(C)CC[C@H]3C2(C)C)C[C@H]1CC,> 50
6,CCOC(=O)N1c2ccc(C(F)(F)F)cc2[C@@H](NC(=O)CCCC(=O)O[C@H]2CC[C@]3(C)[C@H]4CC=C5[C@@H]6[C@@H](C)[C@H](C)CC[C@]6(C(=O)O)CC[C@@]5(C)[C@]4(C)CC[C@H]3C2(C)C)C[C@H]1CC,3.79
